From patent US20230338337A1, “BIOMARKERS FOR CANCER THERAPY USING MDM2 ANTAGONISTS” (OTSUKA PHARMACEUTICAL CO., LTD., priority 2019, published 2023)
Where two headings read alike, the source gives them in different places.

Key:
[1] = target: MDM2-p53 interaction (in vitro translated MDM2) (Homo sapiens (Human), UniProt Q00987); experiment: MDM2-p53 interaction 96-well plate binding assay (ELISA); details: for MDM2 % inhibition at 0.0010: at 0.0010 μM; for MDM2 % inhibition at 0.0030: at 0.0030 μM
SJSA-1 = experiment: Protocol B: CellTiter-Glo cell viability assay; details: for IC50: read-out: SJSA1 IC50 (μM) (Protocol B); for SJSA1 (Protocol B) % inhibition at 10: at 10 μM

Chain of MDM2-p53 interaction (in vitro translated MDM2) (Q00987 whole entry): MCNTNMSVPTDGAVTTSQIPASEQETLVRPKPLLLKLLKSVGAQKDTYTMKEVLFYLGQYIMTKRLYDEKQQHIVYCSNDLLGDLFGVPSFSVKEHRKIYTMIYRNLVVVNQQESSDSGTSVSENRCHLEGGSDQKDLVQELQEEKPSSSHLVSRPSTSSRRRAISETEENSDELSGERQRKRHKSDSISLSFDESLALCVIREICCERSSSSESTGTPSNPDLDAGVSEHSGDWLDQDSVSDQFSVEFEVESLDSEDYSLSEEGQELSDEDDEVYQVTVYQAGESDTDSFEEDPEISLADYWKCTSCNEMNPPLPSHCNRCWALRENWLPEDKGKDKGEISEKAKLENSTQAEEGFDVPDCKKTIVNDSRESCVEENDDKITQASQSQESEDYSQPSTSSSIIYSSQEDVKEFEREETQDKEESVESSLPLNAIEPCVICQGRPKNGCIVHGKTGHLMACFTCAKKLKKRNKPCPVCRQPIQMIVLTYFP

“1-({[(1R)-1-(4-chlorophenyl)-2-[(5-chloropyrimidin-2-yl)methyl]-7-fluoro-5-[1-hydroxy-1-(1-methyl-1H-imidazol-4-yl)propyl]-3-oxo-2,3-dihydro-1H-isoindol-1-yl]oxy}methyl)cyclopropane-1-carboxamide [Example 485]” was tested, and the “MDM2 % inhibition at 0.10” value ([1]; at 0.10 μM) was 58%@0.10 and the IC50 (SJSA-1; Protocol B) was 4.2 µM.

In the case of “2-{[(1R)-1-(4-chlorophenyl)-7-fluoro-5-[1-(4-fluoropiperidin-4-yl)-1-hydroxypropyl]-3-oxo-1-[(3S)-oxolan-3-yloxy]-2,3-dihydro-1H-isoindol-2-yl]methyl}pyrimidine-5-carbonitrile [Example 547]”, the “MDM2 % inhibition at 0.0010” value [1] is reported as 82%@0.0010 and the IC50 (SJSA-1; Protocol B) is reported as 0.96 µM.

“2-{[(1R)-1-(4-chlorophenyl)-7-fluoro-5-[1-hydroxy-1-(1-methyl-1H-imidazol-4-yl)propyl]-3-oxo-1-{[trans-3-hydroxycyclobutyl]methoxy}-2,3-dihydro-1H-isoindol-2-yl]methyl}pyrimidine-5-carbonitrile [Example 483]” was tested, and the “MDM2 % inhibition at 0.0010” value [1] was 58%@0.0010 and the IC50 (SJSA-1; Protocol B) was 0.2 µM.

For “2-{[(1R)-1-(4-chlorophenyl)-7-fluoro-5-[(1R)-1-(4-fluorooxan-4-yl)-1-hydroxypropyl]-3-oxo-1-[(3S)-oxolan-3-yloxy]-2,3-dihydro-1H-isoindol-2-yl]methyl}pyrimidine-5-carbonitrile [Example 507]”, the “MDM2 % inhibition at 0.0030” value [1] was 65%@0.0030 and the IC50 (SJSA-1; Protocol B) was 0.02 µM.

With “2-{[(1R)-1-(4-chlorophenyl)-7-fluoro-5-[(1S)-1-(4-fluorooxan-4-yl)-1-hydroxypropyl]-3-oxo-1-[(3S)-oxolan-3-yloxy]-2,3-dihydro-1H-isoindol-2-yl]methyl}pyrimidine-5-carbonitrile [Example 508]” the “MDM2 % inhibition at 0.10” value ([1]; at 0.10 μM) was 17%@0.10 and the “SJSA1 (Protocol B) % inhibition at 10” value (SJSA-1; Protocol B) was 11% at 10.

In the case of “2-{[(1R)-1-(4-chlorophenyl)-7-fluoro-5-[(1S)-1-(4-fluorooxan-4-yl)-1-hydroxypropyl]-3-oxo-1-[cis-3-hydroxycyclobutoxy]-2,3-dihydro-1H-isoindol-2-yl]methyl}pyrimidine-5-carbonitrile [Example 506]”, the “MDM2 % inhibition at 0.030” value ([1]; at 0.030 μM) is reported as 36%@0.030 and the IC50 (SJSA-1; Protocol B) is reported as 3.4 µM.

Compound “5-chloro-2-{[(1R)-1-(4-chlorophenyl)-7-fluoro-5-[(1R)-1-(4-fluorooxan-4-yl)-1-hydroxypropyl]-1-methoxy-3-oxo-2,3-dihydro-1H-isoindol-2-yl]methyl}pyridine-3-carboxylic acid (tris(hydroxymethyl)aminomethane salt) [Example 514]” has an IC50 (SJSA-1; Protocol B) of 0.64 µM.

For “5-{[(1R)-1-(4-chlorophenyl)-7-fluoro-5-[1-hydroxy-1-(1-methyl-1H-imidazol-4-yl)propyl]-3-oxo-1-[(3S)-oxolan-3-yloxy]-2,3-dihydro-1H-isoindol-2-yl]methyl}pyridine-2-carbonitrile [Example 432]”, the “MDM2 % inhibition at 0.030” value ([1]; at 0.030 μM) was 45%@0.030 and the IC50 (SJSA-1; Protocol B) was 6.2 µM.

With “6-{[1-(4-chlorophenyl)-7-fluoro-5-[1-hydroxy-1-(1-methyl-1H-pyrazol-4-yl)ethyl]-3-oxo-1-[cis-3-hydroxycyclobutoxy]-2,3-dihydro-1H-isoindol-2-yl]methyl}pyridine-3-carbonitrile [Example 355]” the IC50 (SJSA-1; Protocol B) was 4.7 µM.

“6-{[1-(4-chlorophenyl)-7-fluoro-5-[1-hydroxy-1-(1-methyl-1H-pyrazol-4-yl)ethyl]-3-oxo-1-[cis-3-hydroxycyclobutoxy]-2,3-dihydro-1H-isoindol-2-yl]methyl}pyridine-3-carbonitrile [Example 356]” was tested, and the IC50 (SJSA-1; Protocol B) was 0.96 µM.

“6-{[(1R)-1-(4-chlorophenyl)-1-[(1-cyanocyclopropyl)methoxy]-7-fluoro-5-[1-hydroxy-1-(1-methyl-1H-pyrazol-4-yl)ethyl]-3-oxo-2,3-dihydro-1H-isoindol-2-yl]methyl}pyridine-3-carbonitrile [Example 211]” was tested, and the IC50 (SJSA-1; Protocol B) was 0.36 µM.

In the case of “6-{[(1R)-1-(4-chlorophenyl)-7-fluoro-3-oxo-1-[(3S)-oxolan-3-yloxy]-5-[2,2,2-trifluoro-1-hydroxy-1-(1-methyl-1H-pyrazol-4-yl)ethyl]-2,3-dihydro-1H-isoindol-2-yl]methyl}pyridine-3-carbonitrile [Example 371]”, the “MDM2 % inhibition at 0.030” value ([1]; at 0.030 μM) is reported as 43%@0.030 and the IC50 (SJSA-1; Protocol B) is reported as 2.3 µM.

In the case of “6-{[(1R)-1-(4-chlorophenyl)-7-fluoro-5-[1-(4-fluorooxan-4-yl)-1-hydroxypropyl]-1-(2-hydroxyethoxy)-3-oxo-2,3-dihydro-1H-isoindol-2-yl]methyl}pyridine-3-carbonitrile [Example 499]”, the “MDM2 % inhibition at 0.0010” value [1] is reported as 68%@0.0010 and the IC50 (SJSA-1; Protocol B) is reported as 0.053 µM.

For “6-{[(1R)-1-(4-chlorophenyl)-7-fluoro-5-[1-(4-fluorooxan-4-yl)-1-hydroxypropyl]-1-(2-hydroxyethoxy)-3-oxo-2,3-dihydro-1H-isoindol-2-yl]methyl}pyridine-3-carbonitrile [Example 500]”, the “MDM2 % inhibition at 0.10” value ([1]; at 0.10 μM) was 21%@0.10 and the “SJSA1 (Protocol B) % inhibition at 10” value (SJSA-1; Protocol B) was 16% at 10.

With “6-{[(1R)-1-(4-chlorophenyl)-7-fluoro-5-[1-(4-fluorooxan-4-yl)-1-hydroxypropyl]-1-[(2R)-2-hydroxypropoxy]-3-oxo-2,3-dihydro-1H-isoindol-2-yl]methyl}pyridine-3-carbonitrile [Example 498]” the “MDM2 % inhibition at 0.10” value ([1]; at 0.10 μM) was 32%@0.10 and the “SJSA1 (Protocol B) % inhibition at 10” value (SJSA-1; Protocol B) was 96% at 10.

In the case of “6-{[(1R)-1-(4-chlorophenyl)-7-fluoro-5-[1-hydroxy-1-(1-methyl-1H-imidazol-4-yl)butyl]-3-oxo-1-[(3S)-oxolan-3-yloxy]-2,3-dihydro-1H-isoindol-2-yl]methyl}pyridine-3-carbonitrile [Example 472]”, the “MDM2 % inhibition at 0.0030” value [1] is reported as 48%@0.0030 and the IC50 (SJSA-1; Protocol B) is reported as 0.39 µM.

In the case of “6-{[(1R)-1-(4-chlorophenyl)-7-fluoro-5-[1-hydroxy-1-(1-methyl-1H-pyrazol-4-yl)propyl]-3-oxo-1-[(3S)-oxolan-3-yloxy]-2,3-dihydro-1H-isoindol-2-yl]methyl}pyridine-3-carbonitrile [Example 359]”, the “MDM2 % at concentration” value ([1]; at 0.10 μM) is reported as 50%@0.10 and the IC50 (SJSA-1; Protocol B) is reported as 3.9 µM.

For “6-{[(1R)-1-(4-chlorophenyl)-7-fluoro-5-{1-hydroxy-1-[trans-4-hydroxycyclohexyl]propyl}-3-oxo-1-[cis-3-hydroxycyclobutoxy]-2,3-dihydro-1H-isoindol-2-yl]methyl}pyridine-3-carbonitrile [Example 520]”, the “MDM2 % inhibition at 0.030” value ([1]; at 0.030 μM) was 32%@0.030 and the IC50 (SJSA-1; Protocol B) was 3.9 µM.

CCC(O)(c1cc(F)c2c(c1)C(=O)N(Cc1ncc(C#N)cn1)[C@@]2(O[C@H]1CCOC1)c1ccc(Cl)cc1)c1cn(C)cn1 (stereo partly drawn) [Example 369, 2-{[(1R)-1-(4-chlorophenyl)-7-fluoro-5-[1-hydroxy-1-(1-methyl-1H-imidazol-4-yl)propyl]-3-oxo-1-[(3S)-oxolan-3-yloxy]-2,3-dihydro-1H-isoindol-2-yl]methyl}pyrimidine-5-carbonitrile] gave an IC50 (SJSA-1; Protocol B) of 0.062 µM.

Compound [2H]C([2H])([2H])C1(C([2H])([2H])O[C@]2(c3ccc(Cl)cc3)c3c(F)cc(C(O)(CC)c4cn(C)cn4)cc3C(=O)N2Cc2ccc(C#N)cn2)CC1 (stereo partly drawn) [Example 439, 6-{[(1R)-1-(4-chlorophenyl)-7-fluoro-1-({1-[hydroxy(^2H2)methyl]cyclopropyl}(^2H2)methoxy)-5-[1-hydroxy-1-(1-methyl-1H-imidazol-4-yl)propyl]-3-oxo-2,3-dihydro-1H-isoindol-2-yl]methyl}pyridine-3-carbonitrile] has an IC50 (SJSA-1; Protocol B) of 0.03 µM.

For “(3R)-2-[(5-chloro-1-oxo-1λ^5-pyridin-2-yl)methyl]-3-(4-chlorophenyl)-4-fluoro-6-[1-hydroxy-1-(1-methyl-1H-pyrazol-4-yl)ethyl]-3-[(1-hydroxycyclopropyl)methoxy]-2,3-dihydro-1H-isoindol-1-one [Example 409]”, the IC50 (SJSA-1; Protocol B) was 0.41 µM.

“(3R)-2-[(5-chloro-1-oxo-1λ^5-pyridin-2-yl)methyl]-3-(4-chlorophenyl)-4-fluoro-6-[1-hydroxy-1-(1-methyl-1H-pyrazol-4-yl)ethyl]-3-{[1-(hydroxymethyl)cyclopropyl]methoxy}-2,3-dihydro-1H-isoindol-1-one [Example 407]” was tested, and the “MDM2 % at concentration” value [1] was 62%@0.0010 and the IC50 (SJSA-1; Protocol B) was 0.58 µM.

“(3R)-3-(4-Chlorophenyl)-2-[(5-chloropyrimidin-2-yl)methyl]-4-fluoro-6-[1-hydroxy-1-(piperidin-4-yl)propyl]-3-[(3S)-oxolan-3-yloxy]-2,3-dihydro-1H-isoindol-1-one [Example 448]” was tested, and the “MDM2 % inhibition at 0.0010” value [1] was 84%@0.0010 and the IC50 (SJSA-1; Protocol B) was 0.86 µM.

With “(3R)-3-(4-chlorophenyl)-2-[(3,5-difluoropyridin-2-yl)methyl]-4-fluoro-6-[1-hydroxy-1-(1-methyl-1H-pyrazol-4-yl)ethyl]-3-[(1-hydroxycyclopropyl)methoxy]-2,3-dihydro-1H-isoindol-1-one [Example 350]” the “MDM2 % at concentration” value ([1]; at 0.030 μM) was 54%@0.030 and the IC50 (SJSA-1; Protocol B) was 0.51 µM.

“(3R)-3-(4-chlorophenyl)-2-[(5-chloropyridin-2-yl)methyl]-4-fluoro-6-[1-hydroxy-1-(1-methyl-1H-pyrazol-4-yl)ethyl]-3-(2-hydroxyethoxy)-2,3-dihydro-1H-isoindol-1-one [Example 213]” showed an IC50 (SJSA-1; Protocol B) of 0.25 µM.

In the case of “(3R)-3-(4-chlorophenyl)-2-[(5-chloropyrimidin-2-yl)methyl]-4-fluoro-6-{1-hydroxy-1-[trans-4-hydroxycyclohexyl}-3-[cis-3-hydroxycyclobutoxy]-2,3-dihydro-1H-isoindol-1-one: *fast eluting isomer [Example 496]”, the IC50 (SJSA-1; Protocol B) is reported as 1.8 µM.

Compound “(3S)-3-(4-chlorophenyl)-3-[(1R)-1-(4-chlorophenyl)-5-(1-cyclobutyl-1-hydroxyethyl)-7-fluoro-1-methoxy-3-oxo-2,3-dihydro-1H-isoindol-2-yl]propanoic acid [Example 103]” has an IC50 (SJSA-1; SJSA-1, CellTiter-Glo, 72 hrs) of 0.8 µM.

“(3S)-3-(4-chlorophenyl)-3-[(1R)-1-(4-chlorophenyl)-7-fluoro-5-[1-hydroxy-1-(oxan-4-yl)ethyl]-1-methoxy-3-oxo-2,3-dihydro-1H-isoindol-2-yl]propanoic acid [Example 88]” gave an IC50 (SJSA-1; SJSA-1, CellTiter-Glo, 72 hrs) of 0.23 µM.
